Source: patent US20130138221A1, “METHODS AND COMPOSITIONS FOR IMPROVING IMPLANT OSSEOINTEGRATION” (Novartis AG, priority 2010, published 2013)

B1: Antibody 1: anti-sclerostin antibody with VH domain SEQ ID NO: 1 and VL domain SEQ ID NO: 2, disclosed in WO09047356 (antibody, V domains shown)
VH: QVQLVESGGGLVQPGGSLRLSCAASGFTFRSHWLSWVRQAPGKGLEWVSNINYDGSSTYYADSVKGRFTISRDNSKNTLYLQMNSLRAEDTAVYYCARDTYLHFDYWGQGTLVTVSS
VL: DIALTQPASVSGSPGQSITISCTGTSSDVGDINDVSWYQQHPGKAPKLMIYDVNNRPSGVSNRFSGSKSGNTASLTISGLQAEDEADYYCQSYAGSYLSEVFGGGTKLTVLGQ
modifications: Antibody Vh; Antibody Vl

Assays:
[1] = test system: bone resorption; details: zoledronic acid versus etidronate; reference 22; cited from earlier work
[2] = test system: estrogen-deprived (OVX) Wistar rats with titanium screw implant in the left tibia; test: biomechanical removal torque testing of titanium screw implants in tibia of ovariectomized rats; format: in vivo, rat; details: 4 weeks post-implantation, implant coated with 8.5 μg zoledronate and/or Antibody 1 100 mg/kg iv. weekly, FIG. 2
Procedure: Titanium screw type implants (3 mm length, 1-1.5 mm diameter, self-cutting) were prepared by either (1) sand blasting and acid etching with no further coating, or (2) sand blasted and acid etched, then coated with 8.5 μg zoledronate. The coating was carried out by warming the implants and then dip coating with a zolendronate stearate salt and then allowing to dry at 80° C. as described for alendronic acid coating in reference 36. The […] and drying cycle was carried out 3 times. Skeletally mature virgin Wistar rats (6.5-month-old, Harlan laboratories, Switzerland) were estrogen-deprived by ovariectomy (OVX) under narcosis. Bone mineral density loss was confirmed in the proximal tibia metaphysis (4.5 mm distal from proximal end) three months post-ovariectomy (compared to intact controls) by peripheral quantitative computed tomography as described previously. The titanium screws were implanted approximately 3 mm distal to the proximal end of the left tibia under narcosis. Animals received a sand-blasted acid edged titanium implant with or without zoledronic acid coating which were prepared as above. Animals were distributed into the following groups [n=16/group and time point]: 1. OVX group receiving control implant 2. […] Intact group receiving control implant Animals were sacrificed 2 and 4 weeks post-implantation. […]

Row | Molecule | potency relative to etidronate [1] | increase in removal torque versus OVX control implant (group 1) [2] [%]
1 | O=P(O)(O)C(O)(Cn1ccnc1)P(=O)(O)O [zoledronic acid, 1-hydroxy-2-(imidazol-1-yl)ethane-1,1-diphosphonic acid] | 10,000 times | –
2 | B1 | – | 32
